Reference: PubChem BioAssay AID298 (DTP/NCI, 2004)
Results filed as inconclusive are left out.

Test system: MX-1 breast xenograft, intrarenal, nude mice, tumor weight
Assay: NCI In Vivo Anticancer Drug Screen. Data for tumor model Human Mammary Carcinoma MX-1 Xenograft (intrarenal inoculation) in NU/NU BALB/C (nude) mice
Details: endpoint: mean tumor weight change, higher = larger tumour
Method in brief: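 Mice w/ transplanted tumors, drug vs vehicle; endpoint survival or tumor size; value = T/C.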

[1] = dose: 37.5 mg/kg/injection, schedule: Q04DX003 (sc), vehicle: saline with Tween-80

CCOC(=O)C(N)CSC(=O)NC (stereo unspecified)
T/C (dose: 112.5 mg/kg/injection, schedule: Q04DX003 (ip), vehicle: Klucel (hydroxypropylcellulose) (HPC)): 54 % of control
T/C (dose: 125.0 mg/kg/injection, schedule: Q04DX003 (sc), vehicle: saline): 72 % of control
T/C (dose: 225.0 mg/kg/injection, schedule: Q04DX003 (ip), vehicle: Klucel (hydroxypropylcellulose) (HPC)): 14 % of control
T/C (dose: 225.0 mg/kg/injection, schedule: Q04DX003 (sc), vehicle: saline): 26 % of control
T/C (dose: 450.0 mg/kg/injection, schedule: Q04DX003 (ip), vehicle: Klucel (hydroxypropylcellulose) (HPC)): 9 % of control
T/C (dose: 450.0 mg/kg/injection, schedule: Q04DX003 (sc), vehicle: saline): 2 % of control
T/C (dose: 900.0 mg/kg/injection, schedule: Q04DX003 (sc), vehicle: saline): -19 % of control

CC(=O)NCCSSCCCCS(=O)O
T/C (dose: 150.0 mg/kg/injection, schedule: Q04DX003 (ip), vehicle: saline): 110 % of control
T/C (dose: 300.0 mg/kg/injection, schedule: Q04DX003 (ip), vehicle: saline): 112 % of control

CCCn1c(SC)nc(COC(=O)NC)c1COC(=O)NC
T/C (dose: 30.0 mg/kg/injection, schedule: Q04DX003 (ip), vehicle: saline): 62 % of control
T/C (dose: 60.0 mg/kg/injection, schedule: Q04DX003 (ip), vehicle: saline): 38 % of control
T/C (dose: 120.0 mg/kg/injection, schedule: Q04DX003 (ip), vehicle: saline): 7 % of control
T/C (dose: 240.0 mg/kg/injection, schedule: Q04DX003 (ip), vehicle: saline): -100 % of control

CCS/C(SC)=C(/c1ccccc1)[P+](c1ccccc1)(c1ccccc1)c1ccccc1
T/C (dose: 9.38 mg/kg/injection, schedule: Q04DX003 (sc), vehicle: Klucel (hydroxypropylcellulose) (HPC)): 92 % of control
T/C (dose: 18.75 mg/kg/injection, schedule: Q04DX003 (sc), vehicle: Klucel (hydroxypropylcellulose) (HPC)): 111 % of control
T/C (dose: 37.5 mg/kg/injection, schedule: Q04DX003 (sc), vehicle: Klucel (hydroxypropylcellulose) (HPC)): 75 % of control

Oc1cccc2ccccc12
T/C (dose: 150.0 mg/kg/injection, schedule: Q04DX003 (ip), vehicle: water): 81 % of control

COc1ccc2c(c1)CCn1c(C)c(COC(=O)NC(C)C)c(COC(=O)NC(C)C)c1-2
T/C (dose: 75.0 mg/kg/injection, schedule: Q04DX003 (ip), vehicle: distilled water + Tween-80): -29 % of control

Nc1ccc(Cn2ccc3c4c(N)nc(N)nc4ccc32)cc1
T/C (dose: 18.75 mg/kg/injection, schedule: Q04DX003 (sc), vehicle: saline with Tween-80): 80 % of control
T/C [1]: 75 % of control

Nc1nc([Se]c2nc(N)nc3c2ncn3C2OC(CO)C(O)C2O)c2ncn(C3OC(CO)C(O)C3O)c2n1 (stereo unspecified)
T/C (dose: 100.0 mg/kg/injection, schedule: Q04DX003 (ip), vehicle: distilled water + Tween-80): 77 % of control
T/C (dose: 200.0 mg/kg/injection, schedule: Q04DX003 (ip), vehicle: distilled water + Tween-80): 78 % of control
T/C (dose: 400.0 mg/kg/injection, schedule: Q04DX003 (ip), vehicle: distilled water + Tween-80): 34 % of control

NC(=O)CCC(N)C(=O)O (stereo unspecified)
T/C (dose: 150.0 mg/kg/injection, schedule: Q04DX003 (ip), vehicle: suspension in saline): 91 % of control
T/C (dose: 300.0 mg/kg/injection, schedule: Q04DX003 (ip), vehicle: suspension in saline): 102 % of control
T/C (dose: 600.0 mg/kg/injection, schedule: Q04DX003 (ip), vehicle: suspension in saline): 76 % of control
T/C (dose: 1200.0 mg/kg/injection, schedule: Q04DX003 (ip), vehicle: suspension in saline): 87 % of control

O=C1N[C@@H]2C(=C[C@H](O)[C@@H](O)[C@H]2O)c2cc3c(c(O)c21)OCO3
T/C (dose: 1.25 mg/kg/injection, schedule: Q04DX003 (sc), vehicle: saline with Tween-80): 71 % of control

CN1CCN(c2ccc([N+](=O)[O-])c3no[n+]([O-])c23)CC1
T/C [1]: 117 % of control
T/C (dose: 75.0 mg/kg/injection, schedule: Q04DX003 (sc), vehicle: saline with Tween-80): 83 % of control
T/C (dose: 150.0 mg/kg/injection, schedule: Q04DX003 (sc), vehicle: saline with Tween-80): 72 % of control

O=S(=O)(O)C1=CC(=N\Cl)/C=CC/1=N/Cl
T/C (dose: 150.0 mg/kg/injection, schedule: Q04DX003 (ip), vehicle: saline with Tween-80): 89 % of control

Nc1nc(N)c2cc(CNc3ccc(C(=O)NC(CC(=O)O)CC(=O)O)cc3)ccc2n1
T/C (dose: 150.0 mg/kg/injection, schedule: Q04DX003 (sc), vehicle: Klucel (hydroxypropylcellulose) (HPC)): 103 % of control
T/C (dose: 300.0 mg/kg/injection, schedule: Q04DX003 (sc), vehicle: Klucel (hydroxypropylcellulose) (HPC)): 86 % of control
T/C (dose: 600.0 mg/kg/injection, schedule: Q04DX003 (sc), vehicle: Klucel (hydroxypropylcellulose) (HPC)): 91 % of control
T/C (dose: 1200.0 mg/kg/injection, schedule: Q04DX003 (sc), vehicle: Klucel (hydroxypropylcellulose) (HPC)): 101 % of control
